IC50 and ED50 data for two compounds are collected here from USRE38132E1, “Phenylpyrrolidines, phenylimidazolidines,3-phenyl-1,3-oxizolidines and 3-phenyl-1,3-thiazolidines and their use in the treatment of inflammatory disease” (Boehringer Ingelheim Pharmaceuticals, Inc., priority 1997, dated 2003).

Assay [1] deals with LFA-1 dependent aggregation of JY cells. The assay is described as follows: JY cell homotypic aggregation assay (PMA-stimulated). In kind it is cell-based, human. The settings on record: Homo sapiens. An outline of the steps: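 JY cells (2·10^5 cells/well) in RPMI 1640 with 10% FCS incubated with test compound and […]; cells settle spontaneously and aggregation is scored at various time points. Values are concentrations (μM) giving 50% inhibition of binding.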

In assay [2] the test system is allogeneic cell transplant response, popliteal lymph node. The assay can be described thus: In vivo allogeneic cell transplant model (popliteal lymph node weight). Particulars: Mus musculus, po; mice, per os, dose at which 50% inhibition is observed; read-out: Allogeneic Cell Transplantation Assay ACT ED50. From the text:
In vivo: Allogeneic Cell Transplant Model Purpose of Assay: The ability of cells to recognize other cells from self or from another genetically different individual (non-self) is an important property in maintaining the integrity of tissue and organ structure. The allogeneic cell transplant response is an important model for studies of transplant rejection and immunocompetence. This T-cell-mediated immune response can be induced in adult mice by the injection of lymphocytes from a histoincompatible mouse strain into the footpad . This response is characterized by T-cell proliferation which is limited to the popliteal lymph node that receives drainage from the injected footpad area. No in vitro system can completely duplicate this in vivo response. Thus, this animal model can be used to assess the ability of a test compound to suppress transplant rejection. Description of Assay Protocol: Experiments are conducted using male or female mice (20-26 grams). Any histoincompatible mouse strains suffice for donor and recipient populations. Typically DBA mice are used as donors and […] mice are used as recipients. A minimum of 1 week stabilization and conditioning period is required before use during which time the animals are maintained in accordance with the Animal Resource Center S.O.P. Each study utilizes 36 recipient mice divided into groups of 6. The tests last approximately four days. Donor mice are sacrificed by CO2 asphyxiation and spleens are removed and made into a cell suspension. The cells (1.0·10^7/metatarsal in 0.05 mL) are injected intra dermal (according to standard protocol) into the dorsal metatarsal skin of recipient mice. Four days later, the animals are sacrificed by CO2 asphyxiation and the popliteal nodes are removed and weighed. Groups of mice receiving putative immunosuppressive agents are dosed subcutaneously, intraperitoneally or orally one hour prior to cell injection and daily thereafter according to standard protocol. Student's T-test was used to determine significant differences between popliteal lymph nodes of groups of untreated mice and those mice treated with putative immunosuppressive agents (see: Kroczek, R. A.; Black, C. D. V.; Barbet, […]. Immunology, 1987, 139, 3597). Data are reported as the dose at which 50% inhibition is observed and the manner in which the compound was administered. In Table 23, the following legends are applicable: ^and=not determined. ^bpercent inhibition at 160 μg/mL. ^cno inhibition observed up to highest dose. Exact quantification not always possible due to intrinsic toxicity of compound (see MTT result). ^[…] inhibition (concentration in μM ). ^eapproximated from incomplete dose-response curve. ^fnot determined; compound is a synthesis intermediate.

Assay [3] concerns cell bound form of LFA-1 (CD18, CD11a) with ICAM-1, SKW3 cells. The assay is described as follows: Inhibition of SKW3 cell binding to ICAM-1 (PMA-stimulated). The class given is cell-based, human. The settings on record: Homo sapiens, SKW3, values marked c: no inhibition observed up to highest dose; read-out: Assay to Detect SKW3 Cells Binding to ICAM IC50. An outline of the steps: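 Plates coated with sICAM-1 (40 μg/mL) or fibronectin (100 μg/mL) for 1 h; SKW3 cells in RPMI/15% FBS activated with PMA (50 μg/mL final) added with compound, 2 h at 37° C. Unbound cells washed off; value is concentration (μM) giving 50% binding inhibition.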

Consider `C[C@]1(Cc2ccc(Br)cc2)NC(=O)N(c2cc(Cl)cc(Cl)c2)C1=O` [Example 29], for which the IC50 (commonly the concentration that inhibits the measured activity by half) is 0.1 µM in assay [1] and 8 µM in assay [3]. Besides, the ED50 (commonly the dose that gives a 50% effect, or the effect in half of the subjects) in assay [2] is roughly 60 mg/kg.
As to `CC(=O)N1C(=O)N(c2cc(Cl)cc(Cl)c2)C(=O)[C@@]1(C)Cc1ccc(Br)cc1` [Example 102], the values for the IC50 in assay [1] and in assay [3] were 1.3 µM and 25 to 50 µM, respectively. Further, in assay [2], the ED50 is roughly 25 mg/kg.
